Ki and melting point data for 20 compounds are collected here from publication PMC6009984, “Synthesis and biological evaluation of benzenesulphonamide-bearing 1,4,5-trisubstituted-1,2,3-triazoles possessing human carbonic anhydrase I, II, IV, and IX inhibitory activity” (Journal of Enzyme Inhibition and Medicinal Chemistry, 2017).

One data set deals with hCA IX (Homo sapiens, UniProt Q16790). Kind of data set: stopped-flow CO2 hydrase assay, hCA IX.
A further data set has as its target hCA II (Homo sapiens, UniProt P00918). The data set can be described thus: stopped-flow CO2 hydrase assay, hCA II. The conditions noted are these: Ki (nM) hCA II, cytosolic isoform; mean from three different assays, stopped flow technique, errors ±5–10%.
For the next data set, the target named is hCA I (Homo sapiens, UniProt P00915). The data set can be described thus: stopped-flow CO2 hydrase assay, hCA I.
Sequence of hCA I (P00915 whole entry): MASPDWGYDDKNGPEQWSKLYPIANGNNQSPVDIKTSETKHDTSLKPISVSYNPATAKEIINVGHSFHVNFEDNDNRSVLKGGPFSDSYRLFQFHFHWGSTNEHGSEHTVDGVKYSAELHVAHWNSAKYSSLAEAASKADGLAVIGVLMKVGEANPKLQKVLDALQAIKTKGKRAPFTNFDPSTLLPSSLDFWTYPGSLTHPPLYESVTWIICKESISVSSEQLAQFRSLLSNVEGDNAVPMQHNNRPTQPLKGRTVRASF
The next data set deals with hCA IV (Homo sapiens, UniProt P22748). Kind of data set: stopped-flow CO2 hydrase assay, hCA IV.
Sequence of hCA IV (P22748 19-312): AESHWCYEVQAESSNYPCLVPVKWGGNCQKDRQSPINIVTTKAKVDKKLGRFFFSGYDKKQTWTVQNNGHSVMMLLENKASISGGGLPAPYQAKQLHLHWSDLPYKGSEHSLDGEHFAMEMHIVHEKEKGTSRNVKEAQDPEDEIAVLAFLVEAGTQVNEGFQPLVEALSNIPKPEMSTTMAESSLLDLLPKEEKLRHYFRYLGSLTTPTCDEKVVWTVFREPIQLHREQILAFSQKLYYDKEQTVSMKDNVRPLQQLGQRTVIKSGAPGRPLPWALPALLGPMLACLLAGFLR

Broadly, the Ki is the equilibrium dissociation constant of an inhibitor or competing ligand from its target. In general, melting point refers to the temperature of the solid-liquid transition. Consider `NS(=O)(=O)c1ccc(-n2nnc(CO)c2-c2ccc3ccccc3c2)cc1` [Compound 8d, 4-(4-(Hydroxymethyl)-5-(2-naphthyl)-1H-1,2,3-triazol-1-yl)benzenesulphonamide], for which the melting point is 212 to 214 °C. The compound further yielded an inhibition constant (Ki) at hCA IX of 7.8 nM. The same compound yielded a Ki on hCA II of 8.1 nM. The compound further had an inhibition constant (Ki) at hCA I of 214 nM. Besides, the affinity at hCA IV, expressed as Ki, was 1.9 nM.

Consider `NS(=O)(=O)c1ccc(-n2nnc(CO)c2-c2ccccc2)cc1` [Compound 8b, 4-(4-(Hydroxymethyl)-5-phenyl-1H-1,2,3-triazol-1-yl)benzenesulphonamide], for which the melting point lay within 174 to 176 °C. This compound showed an inhibitory constant (Ki) on hCA IX of 58.7 nM. The Ki at hCA II turned out to be 9.4 nM. The compound also returned an inhibition constant Ki at hCA I of 78.9 nM. Besides, the Ki at hCA IV worked out at 8.4 nM.

`CCOC(=O)c1nnn(-c2ccc(S(N)(=O)=O)cc2)c1-c1ccc2ccccc2c1` [Compound 4d, Ethyl 1-[4-(aminosulfonyl)phenyl]-5-(2-naphthyl)-1H-1,2,3-triazole-4-carboxylate] returned a melting point of 180 °C. The same compound yielded a Ki at hCA IX of 7.1 nM. The compound also showed an inhibition constant (Ki) on hCA II of 5.8 nM. On hCA I, this compound registered a Ki of 68.2 nM. Besides, the inhibition constant Ki at hCA IV was 5 nM.

With `CCOC(=O)c1nnn(-c2ccc(S(N)(=O)=O)cc2)c1C` [Compound 4a, Ethyl 1-[4-(aminosulfonyl)phenyl]-5-methyl-1H-1,2,3-triazole-4-carboxylate], the Ki is 6.6 nM on hCA IX, 3.2 nM on hCA II, 9.1 nM at hCA I and 3.5 nM at hCA IV.

In turn, `Cc1c(C(N)=O)nnn1-c1ccc(S(N)(=O)=O)cc1` [Compound 6a, 1-[4-(Aminosulfonyl)phenyl]-5-methyl-1H-1,2,3-triazole-4-carboxamide] displayed a melting point of 314 to 316 °C. This compound also displayed an inhibition constant (Ki) at hCA IX of 9.5 nM. Further, the Ki on hCA II was found to be 1.9 nM. The compound also yielded a Ki at hCA I of 8.3 nM. Moreover, the affinity on hCA IV corresponds to a Ki of 212 nM.

`NS(=O)(=O)c1ccc(-n2nnc(C(=O)O)c2-c2ccccc2)cc1` [Compound 5b, 1-[4-(Aminosulfonyl)phenyl]-5-phenyl-1H-1,2,3-triazole-4-carboxylic acid]: the inhibitory constant (Ki) at hCA IX was 45.9 nM; on hCA II, 97.9 nM; on hCA I, 646 nM; at hCA IV, 55.3 nM.

As to `CCOC(=O)c1nnn(-c2ccc(S(N)(=O)=O)cc2)c1-c1ccc(OC)cc1` [Compound 4c, Ethyl 1-[4-(aminosulfonyl)phenyl]-5-(4-methoxyphenyl)-1H-1,2,3-triazole-4-carboxylate], the melting point is 176 °C. In addition, on hCA IX, the Ki came to 40 nM. The same compound displayed an inhibition constant Ki at hCA II of 6.1 nM. On hCA I, this compound displayed a Ki of 63 nM. The compound further showed a Ki on hCA IV of 4.5 nM.

For the compound `Cc1c(C(=O)NN)nnn1-c1ccc(S(N)(=O)=O)cc1` [Compound 7a, 4-[4-(Hydrazinocarbonyl)-5-methyl-1H-1,2,3-triazol-1-yl]benzenesulphonamide], the Ki was 9.3 nM on hCA IX, 7.6 nM at hCA II, 15.1 nM at hCA I and 228 nM at hCA IV.

`NC(=O)c1nnn(-c2ccc(S(N)(=O)=O)cc2)c1-c1ccc2ccccc2c1` [Compound 6d, 1-[4-(Aminosulfonyl)phenyl]-5-(2-naphthyl)-1H-1,2,3-triazole-4-carboxamide]: the melting point lay in the range of 278 to 280 °C. For the same compound, at hCA IX, the Ki came to 6.7 nM. The inhibition constant (Ki) on hCA II amounted to 6 nM. At hCA I, the Ki turned out to be 772 nM. Moreover, the Ki at hCA IV is 4 nM.

The compound `NS(=O)(=O)c1ccc(-n2nnc(C(=O)O)c2-c2ccc3ccccc3c2)cc1` [Compound 5d, 1-[4-(Aminosulfonyl)phenyl]-5-(2-naphthyl)-1H-1,2,3-triazole-4-carboxylic acid] had a melting point of 198 to 200 °C. Moreover, on hCA IX, the affinity corresponds to a Ki of 4.2 nM. The compound also returned a Ki on hCA II of 8.9 nM. In addition, at hCA I, the inhibition constant (Ki) was 56.2 nM. Further, the Ki at hCA IV turned out to be 4.1 nM.

`NNC(=O)c1nnn(-c2ccc(S(N)(=O)=O)cc2)c1-c1ccccc1` [Compound 7b, 4-[4-(Hydrazinocarbonyl)-5-phenyl-1H-1,2,3-triazol-1-yl]benzenesulphonamide]: the melting point is 206 °C. The same compound showed a Ki at hCA IX of 26.1 nM. The compound further yielded a Ki at hCA II of 38 nM. The same compound displayed a Ki on hCA I of 73.7 nM. In addition, the Ki on hCA IV turned out to be 22.7 nM.

`NNC(=O)c1nnn(-c2ccc(S(N)(=O)=O)cc2)c1-c1ccc2ccccc2c1` [Compound 7d, 4-[4-(Hydrazinocarbonyl)-5-(2-naphthyl)-1H-1,2,3-triazol-1-yl]benzenesulphonamide] registered a melting point of 156 °C. The compound further yielded an inhibition constant Ki on hCA IX of 7.2 nM. In addition, the Ki at hCA II was 1.6 nM. Further, affinity on hCA I was put at a Ki of 82.5 nM. The affinity on hCA IV, expressed as Ki, was 2 nM.

`CCOC(=O)c1nnn(-c2ccc(S(N)(=O)=O)cc2)c1-c1ccccc1` [Compound 4b, Ethyl 1-[4-(aminosulfonyl)phenyl]-5-phenyl-1H-1,2,3-triazole-4-carboxylate] showed a melting point of 184 °C. This compound also had a Ki at hCA IX of 9.5 nM. For the same compound, the affinity at hCA II corresponds to a Ki of 6 nM. This compound gave an inhibition constant Ki at hCA I of 246 nM. This compound registered an inhibition constant Ki at hCA IV of 5.1 nM.

Turning to `NC(=O)c1nnn(-c2ccc(S(N)(=O)=O)cc2)c1-c1ccccc1` [Compound 6b, 1-[4-(Aminosulfonyl)phenyl]-5-phenyl-1H-1,2,3-triazole-4-carboxamide], the melting point was found to be 210 °C. Moreover, the affinity at hCA IX corresponds to a Ki of 28.3 nM. Further, the Ki on hCA II was 9.1 nM. The same compound came in with a Ki on hCA I of 69.1 nM. The compound further registered an inhibition constant (Ki) on hCA IV of 1.4 nM.

On to `Cc1c(CO)nnn1-c1ccc(S(N)(=O)=O)cc1` [Compound 8a, 4-(4-(Hydroxymethyl)-5-methyl-1H-1,2,3-triazol-1-yl)benzenesulphonamide], for which the melting point stood at 184 °C. The compound further returned a Ki on hCA IX of 30.6 nM. This compound also came in with an inhibition constant Ki at hCA II of 58.9 nM. The Ki on hCA I was 354 nM. The compound also displayed a Ki at hCA IV of 360 nM.

Consider `COc1ccc(-c2c(C(=O)NN)nnn2-c2ccc(S(N)(=O)=O)cc2)cc1` [Compound 7c, 4-[4-(Hydrazinocarbonyl)-5-(4-methoxyphenyl)-1H-1,2,3-triazol-1-yl]benzenesulphonamide], for which the melting point was 170 to 172 °C. Moreover, on hCA IX, the Ki was 8.1 nM. The same compound had a Ki on hCA II of 5.6 nM. At hCA I, the affinity, expressed as Ki, was 91.2 nM. On hCA IV, this compound yielded a Ki of 4 nM.

`COc1ccc(-c2c(C(N)=O)nnn2-c2ccc(S(N)(=O)=O)cc2)cc1` [Compound 6c, 1-[4-(Aminosulfonyl)phenyl]-5-(4-methoxyphenyl)-1H-1,2,3-triazole-4-carboxamide] came in with a melting point of 280 to 282 °C. This compound came in with a Ki at hCA IX of 6.8 nM. The same compound showed a Ki at hCA II of 6.2 nM. At hCA I, this compound came in with a Ki of 874 nM. On hCA IV, this compound displayed a Ki of 1.7 nM.

In the case of `Cc1c(C(=O)O)nnn1-c1ccc(S(N)(=O)=O)cc1` [Compound 5a, 1-[4-(Aminosulfonyl)phenyl]-5-methyl-1H-1,2,3-triazole-4-carboxylic acid], the melting point was 198 °C. On hCA IX, this compound yielded an inhibition constant Ki of 8.5 nM. Further, at hCA II, the inhibition constant (Ki) amounted to 1.6 nM. Also, the Ki at hCA I was 9.6 nM. The Ki at hCA IV stood at 269 nM.

Regarding `COc1ccc(-c2c(C(=O)O)nnn2-c2ccc(S(N)(=O)=O)cc2)cc1` [Compound 5c, 1-[4-(Aminosulfonyl)phenyl]-5-(4-methoxyphenyl)-1H-1,2,3-triazole-4-carboxylic acid], the melting point was in the range of 148 to 150 °C. The Ki at hCA IX amounted to 42.3 nM. This compound also yielded a Ki at hCA II of 9 nM. Also, the affinity at hCA I corresponds to a Ki of 489 nM. The compound further returned an inhibition constant Ki on hCA IV of 2.4 nM.

Compound `COc1ccc(-c2c(CO)nnn2-c2ccc(S(N)(=O)=O)cc2)cc1` [Compound 8c, 4-(4-(Hydroxymethyl)-5-(4-methoxyphenyl)-1H-1,2,3-triazol-1-yl)benzenesulphonamide] yielded a melting point of 180 to 182 °C. The compound also came in with an inhibitory constant (Ki) at hCA IX of 5.8 nM. For the same compound, the Ki at hCA II was found to be 4 nM. At hCA I, this compound had an inhibition constant Ki of 812 nM. On hCA IV, the Ki is 1.9 nM.
